Nine compounds from patent US20170197935A1, “INHIBITORS OF DNA GYRASE FOR THE TREATMENT OF BACTERIAL INFECTIONS” (Vitas Pharma Research Private Limited, priority 2012, published 2017) can be followed below.

pIC50: −log10 of the molar value. Converted amounts (≈) assume the structure as drawn. Where two headings read alike, the source gives them in different places.

Series [1] concerns Methicillin resistant Staphylococcus aureus (ATCC 33591). Briefly: MIC by microbroth dilution, MRSA ATCC 33591. It counts as cell-based. On the procedure: (§1) Shown below are the microbiological activities of representative compounds of Formula I of the invention. The compounds were tested by the microbroth dilution method (National committee for Clinical Laboratory Standards, 2011, M07-08) and the Minimum Inhibitory Concentration (MIC) was determined.
(§2) Analysis of microbiological activity of compounds shown below are the microbiological activities of representative compounds of Formula II of the invention. The compounds were tested by the microbroth dilution method as per the reference in Example 1.
A general note: Broth dilution looks for growth in wells or tubes with falling amounts of substance.

In series [2] the test system is E. coli (ATCC 25922). Briefly: MIC by microbroth dilution, E. coli ATCC 25922. It counts as cell-based. Conditions: Escherichia coli. The procedure:
as §1, §2

In series [3] the test system is E. faecalis ATCC 51299. Briefly: MIC by microbroth dilution, E. faecalis ATCC 51299. It counts as cell-based. Conditions: Enterococcus faecalis, ATCC51299, Formula II compounds, read-out: Minimum Inhibitory Concentration (MIC) E. faecalis ATCC 51299. On the procedure:
as §1, §2

Series [4] has as its system Acinetobacter BAA747. In words: MIC by microbroth dilution, Acinetobacter BAA747. It counts as cell-based. Conditions: Formula II compounds, read-out: Minimum Inhibitory Concentration (MIC) Acinetobacter BAA747. On the procedure:
as §1, §2

For series [5], the system named is Pseudomonas ATCC 27853. In words: MIC by microbroth dilution, Pseudomonas ATCC 27853. It counts as cell-based. Conditions: ATCC27853, Formula II compounds, read-out: Minimum Inhibitory Concentration (MIC) Pseudomonas ATCC 27853. On the procedure: as §1, §2
Series [6] addresses T1, ciprofloxacin resistant recombinant Gyrase protein (with mutation S83L) (Escherichia coli, UniProt P0AES4+P0AES6, S83L).
T1 construct: purchased Inspiralis
Briefly: Gyrase supercoiling assay with ciprofloxacin resistant Gyrase (S83L). It counts as biochemical. Conditions: read-out: Target specificity: % inhibition of supercoiling activity. The procedure:
The enzyme is incubated with the substrate (relaxed DNA) in the presence and absence of compounds for 1 hour at 37° C. and the DNA is run on a gel at low voltage for several hours. The amount of supercoiled DNA is quantified using DNA imaging and quantification software (Image Lab). The activity of the enzyme is proportional to the amount of supercoiled form detected.

Series [7] in a line: Single dose pharmacokinetics in male Swiss albino mice. Conditions: mouse, in vivo. It counts as in vivo. The procedure:
(§3) Compounds were dosed to male Swiss albino mice to determine the pharmacokinetic profiles.
as §3

The subject of series [8] is Staphylococcus aureus (ATCC 29213). In words: MIC by microbroth dilution, Staphylococcus aureus ATCC 29213. Conditions: ATCC29213. It counts as cell-based. The procedure: (§4) Shown below are the microbiological activities of representative compounds of Formula I of the invention. The compounds were tested by the microbroth dilution method (National committee for Clinical Laboratory Standards, 2011, […]-08) and the Minimum Inhibitory Concentration (MIC) was determined.

Series [9] concerns Streptococcus pneumoniae (ATCC 6301). In words: MIC by microbroth dilution, Streptococcus pneumoniae ATCC 6301. It counts as cell-based. Conditions: ATCC6301. On the procedure:
as §4

For series [10], the system named is Enterococcus faecalis (ATCC 29212). Briefly: MIC by microbroth dilution, Enterococcus faecalis ATCC 29212. Conditions: ATCC29212. It counts as cell-based. On the procedure: as §4
In series [11] the test system is Moraxella catarrhalis (ATCC 8176). Briefly: MIC by microbroth dilution, Moraxella catarrhalis ATCC 8176. It counts as cell-based. Conditions: ATCC8176. On the procedure: as §4
Series [12] relates to K. pneumoniae (ATCC 700603). Briefly: MIC by microbroth dilution, K. pneumoniae ATCC 700603. It counts as cell-based. Conditions: Klebsiella pneumoniae, ATCC700603, Formula I compounds. On the procedure:
as §1, §2

In series [13] the target is hERG (Homo sapiens, UniProt Q12809). In words: biochemical.
Protocol: To test the ability of the VT-03 compounds to bind the hERG channel, membranes expressing the hERG channel were incubated with radiolabeled Astemizole and displacement of the labeled ligand in the presence of compounds was measured.
To test the ability of the VT-03 compounds (of Formula II) to bind the hERG channel, membranes expressing the hERG channel were incubated with radiolabeled Astemizole and displacement of the labeled ligand in the presence of compounds was measured.
[14] abbreviates: Formula II compounds, read-out: Minimum Inhibitory Concentration (MIC) MRSA ATCC 33591.
Where [15] appears, read: ATCC25922, Formula II compounds, read-out: Minimum Inhibitory Concentration (MIC) E. coli ATCC 25922.

The inhibition is the percentage by which the read-out fell short of the control. With `COc1ccc2ncc(=O)n(CCN3CCC(NCc4ccc(Cl)c([N+](=O)[O-])c4)CC3)c2c1` [VT-03-00128], the MIC in series [1] (setting [14]) is 0.015 µg/mL (≈ 0.0318 µM); in series [2] (setting [15]), 0.5 to 1 µg/mL (≈ 1.06 to 2.12 µM); in series [3], 0.25 µg/mL (≈ 0.53 µM); in series [4], 0.25 µg/mL (≈ 0.53 µM); in series [5], 8 µg/mL (≈ 17 µM). The inhibition at 0.1 µM in [6] was determined as 34%. The inhibition at 1 µM in series [6] worked out at 51%.
With `Cc1ccc(CNC2CCN(CCn3c(=O)cnc4ncc(C#N)cc43)CC2)cc1[N+](=O)[O-]` [VT-03-00119], the MIC in [1] (setting [14]) was 4 µg/mL (≈ 8.94 µM); in series [2] (setting [15]) it was 8 µg/mL (≈ 17.9 µM); in series [3], 16 µg/mL (≈ 35.8 µM); in series [4] it was 8 µg/mL (≈ 17.9 µM); in [5] it was greater than 32 µg/mL.
As for `COc1ccc2ncc(=O)n(CCN3CCC(NCc4ccc(C)c(F)c4)CC3)c2n1` [VT-03-00101], the results for the MIC in series [1] (setting [14]), in series [2] (setting [15]) and in series [3] were 4 µg/mL (≈ 9.4 µM), greater than 16 µg/mL and 16 µg/mL (≈ 37.6 µM), respectively. In series [6], the inhibition at 0.1 µM stood at 95.9%. Moreover, in [6], the inhibition at 1 µM was determined as 92.3%.
For `Cc1ccc(CNC2CCN(CCn3c(=O)cnc4ccc(Cl)nc43)CC2)cc1C#N` [VT-03-00131], the MIC in [1] (setting [14]) was 0.25 µg/mL (≈ 0.572 µM); in series [2] (setting [15]), 0.25 to 1 µg/mL (≈ 0.572 to 2.29 µM); in series [3], 0.25 µg/mL (≈ 0.572 µM); in series [4], 0.25 µg/mL (≈ 0.572 µM); in [5], 16 µg/mL (≈ 36.6 µM).
As usually defined, the AUC(0-t) is the area under the concentration-time curve up to a stated or last time point. Low readings indicate less exposure, high ones more exposure. One may read the Cmax as the maximum level reached in the sampled fluid or tissue. Usually Tmax stands for the time at which the peak concentration occurs. As usually defined, the half-life is the time needed for the level to fall by half in the phase considered. Lower therefore signals fast loss. The bioavailability is the share of a dose that reaches the circulation, judged against a reference dose that is usually intravenous. A low value points to poor availability. Consider `COc1ccc2ncc(=S)n(CCN3CCC(NCc4ccc(C)c([N+](=O)[O-])c4)CC3)c2c1` [VT-03-00127], for which the MIC in series [1] (setting [14]) is 0.125 µg/mL (≈ 0.267 µM); in series [2] (setting [15]), 1 µg/mL (≈ 2.14 µM); in series [3], 1 µg/mL (≈ 2.14 µM); in series [4], 1 µg/mL (≈ 2.14 µM); in series [5], 8 µg/mL (≈ 17.1 µM). Further, the AUC(0-t) in series [7] (iv, 5 mg/kg) came out at 527 ng·h/mL; in series [7] (oral, 10 mg/kg), 198 ng·h/mL. Also, the Cmax in [7] (iv, 5 mg/kg) is 478 ng/mL; in series [7] (oral, 10 mg/kg), 97 ng/mL. Moreover, the Tmax in [7] (iv, 5 mg/kg) was determined as 0.16 h; in [7] (oral, 10 mg/kg) it was 0.5 h. The half-life is 2 h in series [7] (iv, 5 mg/kg) and 2.89 h in series [7] (oral, 10 mg/kg). The same compound yielded a bioavailability in series [7] (oral 10 mg/kg vs i.v. 5 mg/kg) of 18.8%. The inhibition at 0.1 µM in series [6] turned out to be 39%. In addition, in series [6], the inhibition at 1 µM was determined as 72%.
As to `Cc1ccc(CNC2CCN(CCn3c(=O)cnc4ccc(Cl)nc43)CC2)cc1F` [VT-03-00111], the figures for the MIC in series [1] (setting [14]), in [2] (setting [15]) and in series [3] were 0.125 µg/mL (≈ 0.291 µM), 1 µg/mL (≈ 2.33 µM) and 0.5 µg/mL (≈ 1.16 µM), respectively. In series [6], the inhibition at 0.1 µM was 90.4%. In addition, the inhibition at 1 µM in [6] came out at 87.6%.
On to `Cc1ccc(CNC2CCN(CCn3c(=O)cnc4ccc(C#N)cc43)CC2)cc1F` [VT-03-00103], for which the MIC is 0.03 µg/mL (≈ 0.0715 µM) in series [1] (setting [14]); 0.5 µg/mL (≈ 1.19 µM) in [2] (setting [15]); 0.25 µg/mL (≈ 0.596 µM) in series [3]; 1 µg/mL (≈ 2.38 µM) in [4]; 32 µg/mL (≈ 76.3 µM) in series [5]. The inhibition at 0.1 µM in series [6] was determined as 55.8%. The inhibition at 1 µM in series [6] amounted to 87.5%.
Broadly, the pIC50 is the negative decadic logarithm of the IC50, by convention in mol/L. Higher therefore signals a low IC50. Regarding `COc1ccc2ncc(C#N)c(CCN3CCC(NCc4ccc(OC)c([N+](=O)[O-])c4)CC3)c2c1` [VT-03-00063], the MIC came out at 0.25 µg/mL (≈ 0.526 µM) in series [8]; 0.5 µg/mL (≈ 1.05 µM) in series [1] (ATCC33591, Formula I compounds, read-out: MIC Methicillin resistant Staphylococcus aureus (ATCC 33591)); 0.25 µg/mL (≈ 0.526 µM) in series [9]; 2 µg/mL (≈ 4.21 µM) in series [10]; 0.25 µg/mL (≈ 0.526 µM) in series [11]; 4 µg/mL (≈ 8.41 µM) in [2] (ATCC25922, Formula I compounds, read-out: MIC E. coli (ATCC 25922)). This compound displayed an MIC in series [12] greater than 32 µg/mL. Moreover, the pIC50 in [13] is less than 4.52.
With `Cc1ccc(CNC2CCN(CCn3c(=O)cnc4ccc(F)cc43)CC2)cc1C#N` [VT-03-00117], the MIC is 0.125 µg/mL (≈ 0.298 µM) in series [1] (setting [14]); 0.5 µg/mL (≈ 1.19 µM) in series [2] (setting [15]); 0.25 µg/mL (≈ 0.596 µM) in series [3]; 0.25 µg/mL (≈ 0.596 µM) in [4]; 16 µg/mL (≈ 38.1 µM) in series [5]. Further, the inhibition at 0.1 µM in series [6] was 88.2%. The inhibition at 1 µM in [6] turned out to be 97.5%.
